Measured values reported in ChEMBL document CHEMBL1201862, “PubChem BioAssay data set” (2004).
Active and inactive are the calls of the source.

Tests used:
[1] = tested on: Streptococcus sp. 'group A'; test: Streptococcus pyogenes SK(-)GAS viability under kanamycin – luminescence, BacTiterGlo, confirmation, counter-screen for streptokinase expression inhibitor project, dose response (AID 1900); type: functional, organism-based
Streptococcus = test: GAS UMAA2166 growth inhibition – luminescence, BacTiterGlo, counter-screen for streptokinase expression inhibitor project, dose response (AID 1915); type: functional, organism-based;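 further: potency for reduction of bacterial viability or growth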
Escherichia coli = test: microbe, parasite or virus in culture
[2] = molecular target: Peroxisome proliferator-activated receptor gamma/Nuclear receptor coactivator 1 (Homo sapiens, UniProt P37231); test: (§1) TR-FRET dose response biochemical High Throughput Screening assay for agonists of the steroid receptor coactivator 1 (SRC-1) recruitment by the peroxisome proliferator-activated receptor gamma (PPAR gamma): non-selective agonists. [Related pubchem assays (depositor defined):AID1300, AID1808, AID504735, AID631]; type: protein assay
[3] = molecular target: Peroxisome proliferator-activated receptor gamma/Nuclear receptor coactivator 3 (Homo sapiens, UniProt P37231); test: as §1, with “3 (SRC-3)” for “1 (SRC-1)”, “assays: 1301 (Confirmation screen.), 1048 (Primary screen.)]” for “assays (depositor defined):AID1300, AID1808, AID504735, AID631]”; type: functional
[4] = molecular target: Peroxisome proliferator-activated receptor gamma/Nuclear receptor coactivator 2 (Homo sapiens, UniProt P37231); test: TR-FRET dose response biochemical High Throughput Screening assay for agonists of the steroid receptor coactivator 2 (SRC-2) recruitment by the peroxisome proliferator-activated receptor gamma (PPAR gamma): non-selective agonists. [Related pubchem assays: 1297, 1032 ]; type: functional
Estrogen receptor beta = Estrogen receptor beta (Homo sapiens, UniProt Q92731);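 further: recombinant ER-beta bound to coactivator SRC1 peptide in presence of estradiol agonist; inhibitors block coactivator peptide binding and lower the FRET signal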
Bcl-2-related protein A1 = molecular target: T1, Bcl-2-related protein A1 (Mus musculus, UniProt Q07440); type: functional;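 further: confirmatory dose–response counterscreen on Bfl-1, used to check hits from a UBC13 polyubiquitin inhibitor campaign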
T1 sequence (Q07440 whole entry): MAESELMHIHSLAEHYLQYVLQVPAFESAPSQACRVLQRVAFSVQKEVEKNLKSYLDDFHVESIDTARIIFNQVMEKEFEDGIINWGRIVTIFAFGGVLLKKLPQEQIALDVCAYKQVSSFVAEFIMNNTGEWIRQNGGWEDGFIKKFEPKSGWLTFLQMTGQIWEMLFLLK

[5] = molecular target: T2, Ubiquitin-conjugating enzyme E2 N (Homo sapiens, UniProt P61088); type: functional
T2 sequence (P61088 whole entry): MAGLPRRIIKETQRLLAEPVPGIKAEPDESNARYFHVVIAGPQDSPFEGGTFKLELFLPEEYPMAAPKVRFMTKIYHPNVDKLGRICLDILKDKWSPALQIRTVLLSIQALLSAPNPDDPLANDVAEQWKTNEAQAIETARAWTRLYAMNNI

[6] = molecular target: T2, Ubiquitin-conjugating enzyme E2 N; type: functional; remark: listed apart in the source
[7] = molecular target: T3, Long-chain-fatty-acid--AMP ligase FadD28 (Mycobacterium tuberculosis, UniProt P9WQ59); test: Fluorescence polarization aasay to screen for inhibitors that compete for the binding of FadD28 to a bisubstrate Measured in Biochemical System Using Plate Reader - 2147-01_Inhibitor_Dose_CherryPick_Activity.; type: functional, Mycobacterium tuberculosis H37Rv
T3 sequence (P9WQ59 whole entry): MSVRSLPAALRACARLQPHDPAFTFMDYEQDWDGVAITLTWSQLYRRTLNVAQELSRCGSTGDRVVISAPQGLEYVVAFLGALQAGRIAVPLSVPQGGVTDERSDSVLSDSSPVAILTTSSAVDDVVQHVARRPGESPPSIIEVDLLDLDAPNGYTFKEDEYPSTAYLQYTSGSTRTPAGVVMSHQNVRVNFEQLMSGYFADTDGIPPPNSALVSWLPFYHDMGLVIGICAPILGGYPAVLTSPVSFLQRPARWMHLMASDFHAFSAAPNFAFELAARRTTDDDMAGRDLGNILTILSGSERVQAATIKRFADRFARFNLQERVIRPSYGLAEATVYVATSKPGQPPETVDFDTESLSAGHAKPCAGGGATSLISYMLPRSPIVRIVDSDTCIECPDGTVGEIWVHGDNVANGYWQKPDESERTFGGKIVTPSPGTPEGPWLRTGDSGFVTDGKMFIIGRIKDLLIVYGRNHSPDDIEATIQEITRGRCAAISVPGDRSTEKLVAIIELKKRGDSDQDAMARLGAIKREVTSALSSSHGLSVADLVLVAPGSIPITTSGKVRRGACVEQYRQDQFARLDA

[8] = molecular target: 26S proteasome non-ATPase regulatory subunit 14 (Homo sapiens, UniProt O00487); test: inhibition of proteasome subunit RPN11 – biochemical, fluorescence polarization, uHTS hits, confirmation (AID 602368); type: functional
[9] = molecular target: 72 kDa type IV collagenase (Homo sapiens, UniProt P08253); test: Dose Response validation of uHTS RPN11 inhibitor hits using a MMP-2 Fluorescence assay.; type: functional
Prothrombin = Prothrombin (Bos taurus, UniProt P00735); test: thrombin protease inhibitors – biochemical, fluorescence polarization, uHTS hits, dose response (AID 602369); type: functional

Peroxisome proliferator-activated receptor gamma/Nuclear receptor coactivator 1, sequence (P37231 whole entry): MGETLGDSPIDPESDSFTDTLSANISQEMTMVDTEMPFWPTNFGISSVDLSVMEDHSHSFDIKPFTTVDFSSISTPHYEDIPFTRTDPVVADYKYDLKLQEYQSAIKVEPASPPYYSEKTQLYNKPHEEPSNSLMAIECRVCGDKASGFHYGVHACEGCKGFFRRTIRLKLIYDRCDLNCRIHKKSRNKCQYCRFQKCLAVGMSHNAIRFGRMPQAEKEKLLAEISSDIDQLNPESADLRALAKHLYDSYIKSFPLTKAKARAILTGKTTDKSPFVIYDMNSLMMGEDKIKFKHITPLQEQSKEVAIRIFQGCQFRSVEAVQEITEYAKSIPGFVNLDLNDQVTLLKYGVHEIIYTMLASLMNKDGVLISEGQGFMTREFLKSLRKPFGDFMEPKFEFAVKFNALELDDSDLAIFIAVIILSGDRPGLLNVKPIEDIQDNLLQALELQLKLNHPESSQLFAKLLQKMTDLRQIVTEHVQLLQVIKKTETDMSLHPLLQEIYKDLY
Peroxisome proliferator-activated receptor gamma/Nuclear receptor coactivator 1, sequence (Q15788 whole entry, further chain): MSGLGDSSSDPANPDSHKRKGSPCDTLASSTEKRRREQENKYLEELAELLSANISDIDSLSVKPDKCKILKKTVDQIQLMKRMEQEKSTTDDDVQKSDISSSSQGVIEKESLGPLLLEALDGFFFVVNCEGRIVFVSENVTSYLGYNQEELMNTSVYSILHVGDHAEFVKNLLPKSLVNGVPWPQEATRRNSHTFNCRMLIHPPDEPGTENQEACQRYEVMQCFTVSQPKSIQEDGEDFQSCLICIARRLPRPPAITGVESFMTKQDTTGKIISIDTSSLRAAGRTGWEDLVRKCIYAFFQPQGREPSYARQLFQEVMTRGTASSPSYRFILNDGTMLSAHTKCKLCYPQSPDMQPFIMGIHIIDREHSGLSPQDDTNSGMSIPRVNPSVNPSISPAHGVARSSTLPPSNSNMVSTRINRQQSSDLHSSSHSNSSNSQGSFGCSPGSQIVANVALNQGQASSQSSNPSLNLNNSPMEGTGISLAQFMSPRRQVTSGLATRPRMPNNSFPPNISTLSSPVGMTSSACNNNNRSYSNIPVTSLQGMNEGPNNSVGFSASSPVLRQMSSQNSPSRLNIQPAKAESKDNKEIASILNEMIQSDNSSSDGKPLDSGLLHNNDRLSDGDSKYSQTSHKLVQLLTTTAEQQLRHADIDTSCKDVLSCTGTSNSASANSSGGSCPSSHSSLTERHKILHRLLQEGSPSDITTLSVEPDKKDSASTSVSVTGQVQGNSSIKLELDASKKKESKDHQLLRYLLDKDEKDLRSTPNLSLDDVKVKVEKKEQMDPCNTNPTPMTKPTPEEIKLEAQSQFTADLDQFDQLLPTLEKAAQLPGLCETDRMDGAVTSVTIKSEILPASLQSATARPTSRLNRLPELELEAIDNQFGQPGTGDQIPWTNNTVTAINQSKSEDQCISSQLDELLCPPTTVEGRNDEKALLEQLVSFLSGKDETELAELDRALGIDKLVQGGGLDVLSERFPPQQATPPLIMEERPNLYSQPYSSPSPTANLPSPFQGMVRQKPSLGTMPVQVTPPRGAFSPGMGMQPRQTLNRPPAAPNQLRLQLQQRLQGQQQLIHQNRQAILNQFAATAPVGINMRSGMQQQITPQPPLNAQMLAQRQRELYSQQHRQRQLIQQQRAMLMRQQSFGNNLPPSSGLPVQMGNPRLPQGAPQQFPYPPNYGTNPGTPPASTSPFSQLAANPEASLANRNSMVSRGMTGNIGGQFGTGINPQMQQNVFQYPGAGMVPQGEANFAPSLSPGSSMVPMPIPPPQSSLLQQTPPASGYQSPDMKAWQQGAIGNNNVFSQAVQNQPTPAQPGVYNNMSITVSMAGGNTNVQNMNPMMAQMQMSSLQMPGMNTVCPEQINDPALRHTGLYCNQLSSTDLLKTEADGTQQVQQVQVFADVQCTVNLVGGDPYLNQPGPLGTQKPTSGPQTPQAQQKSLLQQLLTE
Peroxisome proliferator-activated receptor gamma/Nuclear receptor coactivator 3, sequence (P37231 whole entry): as the sequence (P37231 whole entry) above
Peroxisome proliferator-activated receptor gamma/Nuclear receptor coactivator 3, sequence (Q9Y6Q9 whole entry, further chain): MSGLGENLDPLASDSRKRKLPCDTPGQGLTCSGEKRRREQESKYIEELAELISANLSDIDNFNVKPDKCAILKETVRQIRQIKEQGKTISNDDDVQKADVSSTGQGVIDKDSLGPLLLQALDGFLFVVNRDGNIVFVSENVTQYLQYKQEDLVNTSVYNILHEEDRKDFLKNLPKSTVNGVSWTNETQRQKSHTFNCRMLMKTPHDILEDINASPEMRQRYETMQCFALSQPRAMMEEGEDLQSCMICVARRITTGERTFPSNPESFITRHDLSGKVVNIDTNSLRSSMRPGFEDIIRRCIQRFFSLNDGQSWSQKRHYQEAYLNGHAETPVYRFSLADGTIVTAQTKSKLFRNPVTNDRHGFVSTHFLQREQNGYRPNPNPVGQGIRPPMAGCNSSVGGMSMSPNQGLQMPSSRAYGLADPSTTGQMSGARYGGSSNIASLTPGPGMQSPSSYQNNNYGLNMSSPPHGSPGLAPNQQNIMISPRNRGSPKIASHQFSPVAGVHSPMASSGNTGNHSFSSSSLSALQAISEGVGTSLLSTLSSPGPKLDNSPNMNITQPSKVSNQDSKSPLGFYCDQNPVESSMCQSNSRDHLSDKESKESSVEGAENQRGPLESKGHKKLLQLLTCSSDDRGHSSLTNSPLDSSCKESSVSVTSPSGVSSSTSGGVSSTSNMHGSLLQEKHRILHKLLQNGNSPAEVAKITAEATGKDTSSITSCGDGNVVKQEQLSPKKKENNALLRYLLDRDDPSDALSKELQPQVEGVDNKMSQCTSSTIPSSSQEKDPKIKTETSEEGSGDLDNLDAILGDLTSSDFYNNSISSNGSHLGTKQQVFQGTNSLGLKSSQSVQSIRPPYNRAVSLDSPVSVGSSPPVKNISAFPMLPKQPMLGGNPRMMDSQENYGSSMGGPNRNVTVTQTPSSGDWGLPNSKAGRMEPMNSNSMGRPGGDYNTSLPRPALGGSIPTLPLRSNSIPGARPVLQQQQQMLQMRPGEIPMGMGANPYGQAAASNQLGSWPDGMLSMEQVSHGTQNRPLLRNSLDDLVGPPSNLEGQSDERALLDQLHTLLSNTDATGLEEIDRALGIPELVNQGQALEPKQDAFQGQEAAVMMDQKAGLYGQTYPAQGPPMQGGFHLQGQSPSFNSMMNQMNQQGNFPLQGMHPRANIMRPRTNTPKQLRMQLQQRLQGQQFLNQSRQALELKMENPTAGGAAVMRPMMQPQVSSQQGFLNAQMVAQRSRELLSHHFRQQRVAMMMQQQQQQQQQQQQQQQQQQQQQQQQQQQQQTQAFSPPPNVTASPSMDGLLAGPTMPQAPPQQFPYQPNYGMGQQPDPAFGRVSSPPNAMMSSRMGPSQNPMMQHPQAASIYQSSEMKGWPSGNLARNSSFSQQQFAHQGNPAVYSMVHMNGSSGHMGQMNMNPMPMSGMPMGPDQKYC
26S proteasome non-ATPase regulatory subunit 14, sequence (O00487 whole entry): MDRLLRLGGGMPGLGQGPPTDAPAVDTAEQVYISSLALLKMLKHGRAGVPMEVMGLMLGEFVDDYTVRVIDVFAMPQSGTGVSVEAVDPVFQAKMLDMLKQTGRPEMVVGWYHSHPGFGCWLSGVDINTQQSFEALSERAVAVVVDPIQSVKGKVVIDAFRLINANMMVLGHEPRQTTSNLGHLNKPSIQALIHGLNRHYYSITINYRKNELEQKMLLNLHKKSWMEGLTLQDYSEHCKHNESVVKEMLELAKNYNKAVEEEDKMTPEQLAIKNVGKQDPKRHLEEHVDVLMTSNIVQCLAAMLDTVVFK
Estrogen receptor beta, sequence (Q92731 whole entry): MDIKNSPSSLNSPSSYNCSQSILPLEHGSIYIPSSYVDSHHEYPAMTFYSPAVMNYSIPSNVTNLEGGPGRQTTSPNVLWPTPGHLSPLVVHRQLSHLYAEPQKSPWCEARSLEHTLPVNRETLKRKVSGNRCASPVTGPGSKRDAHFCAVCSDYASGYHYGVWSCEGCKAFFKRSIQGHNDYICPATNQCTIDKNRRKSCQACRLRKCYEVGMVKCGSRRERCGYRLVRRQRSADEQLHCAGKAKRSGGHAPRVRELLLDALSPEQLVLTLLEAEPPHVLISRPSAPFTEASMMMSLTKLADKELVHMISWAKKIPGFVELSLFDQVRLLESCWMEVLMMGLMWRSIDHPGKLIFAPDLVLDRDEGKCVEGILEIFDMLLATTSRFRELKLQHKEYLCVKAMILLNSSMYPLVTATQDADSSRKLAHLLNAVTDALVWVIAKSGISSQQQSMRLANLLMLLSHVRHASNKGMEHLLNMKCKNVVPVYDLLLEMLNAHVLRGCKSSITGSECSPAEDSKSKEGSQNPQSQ

In the case of `CCn1cc(C(=O)O)c(=O)c2cc(F)c(N3CCN(C(S)=Nc4ccc(OC)cc4)CC3)cc21`, the EC50 [1] was 2.27 µM (active), the EC50 (Streptococcus) was 7.71 µM (active) and the AC50 (Escherichia coli) was 2.52 µM (active).
For `O=C(O)COc1ccc2c(c1Cl)N=S=N2`, the EC50 [2] was 9.32 µM (active), the EC50 [3] was 59 µM (not active) and the EC50 [4] was 12.5 µM (not active).
In the case of `Cn1c(=O)cc(SCC(=O)Nc2ccc3c(c2)OCO3)c2ccccc21`, the EC50 [2] was > 79.4 µM (inactive), the EC50 [3] was > 79.4 µM (not active) and the EC50 [4] was > 79.4 µM (not active).
In the case of `COCC(=O)Nc1nnc(Cc2ccc(OC)cc2)s1`, the IC50 (Estrogen receptor beta) was > 50 µM (not active) and the AC50 (Escherichia coli) was 111 µM (active).
For `Cc1nc(N)sc1C(=O)N/N=C/c1c[nH]c2ccccc12`, the IC50 (Bcl-2-related protein A1) was > 20 µM (inactive), the IC50 [5] was 1.33 µM (active) and the IC50 [6] was 1.25 µM (active). For the same molecule, the AC50 [7] was 55.1 µM (active).
For `NS(=O)(=O)c1ccc(Nc2ccc([N+](=O)[O-])c3nonc23)cc1`, the IC50 [8] was 39.7 µM (active), the IC50 [9] was > 100 µM (inactive) and the IC50 (Prothrombin) was 36.1 µM (active).
